Source: US5854388A, “Angiotensin IV peptides and receptor” (Washington State University Research Foundation, priority 1994, dated 1998)
Entries after “also recorded” stand apart in the source; their conditions may differ.

Tests used:
AT4 receptor [1] = target: T1, AT4 receptor (Bos taurus, UniProt F1N1Q8); assay: 125I-AIV binding, aortic endothelial cell (BAEC) membranes; design: species or system bovine; settings: 0.6 nM 125I-AIV
T1 sequence (F1N1Q8 1-1022): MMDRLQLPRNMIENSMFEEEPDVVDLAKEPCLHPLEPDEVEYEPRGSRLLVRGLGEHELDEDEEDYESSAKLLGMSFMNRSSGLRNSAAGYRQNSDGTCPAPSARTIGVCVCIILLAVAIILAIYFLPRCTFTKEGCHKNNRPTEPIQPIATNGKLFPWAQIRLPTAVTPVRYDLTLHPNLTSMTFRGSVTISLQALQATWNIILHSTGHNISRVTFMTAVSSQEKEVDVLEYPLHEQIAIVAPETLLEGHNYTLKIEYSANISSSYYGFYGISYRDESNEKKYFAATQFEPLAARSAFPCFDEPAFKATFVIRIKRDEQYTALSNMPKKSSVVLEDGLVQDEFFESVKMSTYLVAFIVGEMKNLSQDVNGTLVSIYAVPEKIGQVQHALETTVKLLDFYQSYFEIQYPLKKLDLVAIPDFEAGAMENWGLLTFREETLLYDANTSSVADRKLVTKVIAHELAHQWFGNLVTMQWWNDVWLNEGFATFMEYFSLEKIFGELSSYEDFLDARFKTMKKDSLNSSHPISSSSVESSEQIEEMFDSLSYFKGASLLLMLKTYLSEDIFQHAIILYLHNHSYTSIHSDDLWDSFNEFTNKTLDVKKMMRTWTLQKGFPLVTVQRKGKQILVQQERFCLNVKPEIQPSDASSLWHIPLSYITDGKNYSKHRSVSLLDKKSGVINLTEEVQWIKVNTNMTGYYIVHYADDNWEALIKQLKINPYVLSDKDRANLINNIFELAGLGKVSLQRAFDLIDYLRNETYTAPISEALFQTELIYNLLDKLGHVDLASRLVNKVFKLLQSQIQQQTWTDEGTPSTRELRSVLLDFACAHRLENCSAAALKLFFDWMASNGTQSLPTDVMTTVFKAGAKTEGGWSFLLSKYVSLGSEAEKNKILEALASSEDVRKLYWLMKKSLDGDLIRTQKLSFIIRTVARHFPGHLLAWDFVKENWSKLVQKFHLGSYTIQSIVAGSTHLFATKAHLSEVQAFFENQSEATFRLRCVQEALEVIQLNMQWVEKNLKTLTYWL

AT1 receptors = assay: GTPγS effect on 125I-AII binding, rat vascular smooth muscle cell (RVSMC) membranes; settings: 0.5 nM 125I-AII
AT4 receptor [2] = target: T1, AT4 receptor; assay: 125I-AIV binding and competition, bovine adrenal cortical membranes
[3] = target: T2, AT1 receptor (AII receptor) (Bos taurus, UniProt P25104); type: binding, bovine; settings: competition
T2 construct: from tissue; host or cells: bovine adrenal cortex membranes
T2 sequence (P25104 1-359): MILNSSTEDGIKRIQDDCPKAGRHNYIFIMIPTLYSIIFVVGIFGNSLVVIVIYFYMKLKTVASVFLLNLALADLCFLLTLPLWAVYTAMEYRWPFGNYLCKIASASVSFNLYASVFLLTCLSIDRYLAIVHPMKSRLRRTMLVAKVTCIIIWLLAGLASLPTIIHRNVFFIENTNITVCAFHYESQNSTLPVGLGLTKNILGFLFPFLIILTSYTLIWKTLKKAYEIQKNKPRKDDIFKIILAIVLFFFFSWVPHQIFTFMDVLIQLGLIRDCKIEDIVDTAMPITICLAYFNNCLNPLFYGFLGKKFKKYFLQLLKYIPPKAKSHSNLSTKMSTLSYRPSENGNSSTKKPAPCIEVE

AT4 receptor [4] = target: T1, AT4 receptor; assay: 125I-AIV binding and competition, solubilized bovine adrenal cortical receptor
AT4 receptor [5] = type: binding, rat; settings: brain, heart, kidney, aorta, lung, liver, cultured smooth muscle cells
Protocol: A second major approach to defining separate and distinct binding sites was to examine their relative tissue and species distribution (Table 8).
*25 μg of membrane protein was incubated with 500,000 cpm of label.
Specific binding was defined as total […]
At this time, the significance of this finding is uncertain.

rat kidney = assay: Renal cortical blood flow (laser doppler) and arterial pressure after infusion into the renal artery; type: in vivo
rats = assay: Passive avoidance conditioning after icv injection; type: in vivo, rat
bovine endothelial cells = assay: Endothelial cell growth (thymidine incorporation) and EDRF production; type: cell-based
Protocol: Cells were grown at 37° C. in 35 mm culture plates […] under 5% CO2 /95% air in Dulbecco's Modified Eagle's Medium (DMEM) supplemented with 5 μg/ml insulin and 10% (v/v) newborn bovine serum (NBBS). […] Negative controls were also included using ethidium bromide (1 mM). The cells were harvested at various times, and cellular lysates were prepared for scintillation counting by lysing and washing the cells on glass fiber filters.
Bovine aortic endothelial cells were grown at 37° C. in 35 mm culture plates under 5% CO2 in air in Dulbecco's Modified Eagle's Medium (DMEM) supplemented with 5 μg/ml insulin and 10% (v/v) newborn bovine serum (NBBS). The medium was aspirated 10-12 hours after seeding and replaced with serum-free medium. The medium was again aspirated 10-12 hours later and replaced with either test or control medium. Control medium was DMEM with 5 µg/ml insulin and 2%, 5%, or 10% (v/v) NBBS as indicated. […] The medium was changed every 48 h (i.e., with supportive DMEM medium for the remainder of the experiment).
As an adjunct to the determination of cell numbers, thymidine incorporation was measured. […] This material was then filtered under vacuum through 2.4 cm glass fiber filters (GF/A, Whatman), and the filters were washed twice with 10 ml of absolute ethanol and assayed for radioactivity by scintillation counting.

cardiocytes = assay: Hypertrophic action of AII on cardiocytes; type: cell-based
[6] = arterial and venous blood in man; cited from earlier work

Row | SMILES | effect on 125I-AIV binding (AT4 receptor [1]) | effect on 125I-AII binding (AT1 receptors) | Bmax (AT4 receptor [2]) | Ki [3] [µM] | off-rate t1/2 (AT4 receptor [4]) [h] | binding in rat tissues (in words) (AT4 receptor [5]) | effect on renal blood flow (in words) (rat kidney; infusion into renal artery) | effect of preinfusion on blood flow response to another ligand (rat kidney; rat, in vivo) | agonist / antagonist activity (in words) (rat kidney; renal blood flow response compared to AIV) | passive avoidance latency / cognitive effect (in words) (rats) | EDRF production (bovine endothelial cells) | endothelial cell proliferation (thymidine incorporation) (bovine endothelial cells) | effect on hypertrophic action of AII (cardiocytes) | half-lives [6] [min]
1 | Nc1nc2c(ncn2[C@@H]2O[C@H](COP(=O)(O)OP(=O)(O)OP(O)(O)=S)[C@@H](O)[C@H]2O)c(=O)[nH]1 [GTPγS] | no effect; also recorded: did not inhibit (or alter) binding | inhibited |  |  |  |  |  |  |  |  |  |  |  | 
2 | CC[C@H](C)[C@H](NC(=O)[C@H](Cc1ccc(O)cc1)NC(=O)[C@@H](N)C(C)C)C(=O)N[C@@H](Cc1cnc[nH]1)C(=O)N1CCC[C@H]1C(=O)N[C@@H](Cc1ccccc1)C(=O)O [AIV, Val1 Tyr2 Ile3 His4 Pro5 Phe6] |  |  | 3.82±1.12 | > 1 | 4.873 | not been possible to demonstrate binding | profound and long-lasting increase in blood flow; also recorded: equally dramatic increase in flow; also recorded: dramatically increase renal blood flow and urine flow in a dose-dependent fashion | completely blocked the constrictive action of AII | full agnoistic activity | significantly elevated latency times | stimulating production of endothelial cell relaxing factor (EDRF) | enhancing cellular proliferation | antagonizes the hypertrophic action of AII | 1.9
